The experiment relates to mice. The experiment is described as follows: Neuropharmacological Assay (SmartCube): automated behavioral signature of compound-treated mice compared with a database of reference drug classes. The format is in vivo. The note with it: for MED (minimal effective dose): dose having 45% or more total activity in SmartCube, i.p., if only one dose was tested, that dose is shown; for AD / AG / AN / HL / MS / PS / SH / UK / AP / AX / CE: probability that activity matches this class of agents, 3.0 mg/kg i.p., 15 min before test. The source says: Neurosci. 2011 Sep. 9; 5: 103 (doi: 10.3389/fnins.2011.00103) (“Roberds”). As reported in Roberds, because psychiatric diseases generally result from disorders of cell-cell communication or circuitry, intact systems are useful in detecting improvement in disease-relevant endpoints. These endpoints are typically behavioral in nature, often requiring human observation and interpretation. To facilitate testing of multiple compounds for behavioral effects relevant to psychiatric disease, PsychoGenics, Inc. (Tarrytown, NY, “PGI”) developed SmartCube™ an automated system in which behaviors of compound-treated mice are captured by digital video and analyzed with computer algorithms. (D. Brunner et al. Drug Discov. Today 2002, 7:S107-S112). PGI Analytical Systems uses data from SmartCube™ to compare the behavioral signature of a test compound to a database of behavioral signatures obtained using a large set of diverse reference compounds. (The composition of the database as well as validation of the method is further described in Roberds). In this way, the neuropharmacological effects of a test compound can be predicted by similarity to major classes of compounds, such as antipsychotics, anxiolytics and antidepressants.
The SmartCube™ system produces an activity signature indicating the probability that the activity of the test compound at the administered dose matches a given class of neuropharmacological agents. (See, e.g., Roberds, FIGS. 2 and 3). The test compound is simultaneously compared against multiple classes of agents; thus, a separate probability is generated for each behavioral effect measured (e.g., anxiolytic activity, analgesic activity, etc.). In table 2 below, these probabilities are reported for each behavioral effect measured as described in Table 1 below.
Provided compounds were dissolved in a mixture of Pharmasolve™ (N-methyl-2-pyrrolidone), polyethylene glycol and propylene glycol, and were injected i.p. 15 min. before the behavioral test. For each compound, injections were administered at 3 different doses. For each behavioral effect measured, results for the 3.0 mg/kg dose are presented. The potency of many of the compounds in the table was also determined in the SmartCube™ system. Test compounds were routinely examined at dose levels of 0.3, 1, 3 and 10 mg per kg (mpk), although the dose range was increased or decreased, if necessary, to obtain a full dose response curve. A compound's minimal effective dose (MED) is a measure of the compound's potency. The MED was defined as the dose (in mpk) having 45% or more total activity in SmartCube. If only one dose was tested, that dose is shown in the MED column of Table 2 even though the dose is not known to be the MED.

On to `CN(C)C1CCc2ccsc2C1.Cl` (single isomer, unassigned) [Compound 15, N,N-dimethyl-4,5,6,7-tetrahydrobenzothiophen-6-amine hydrochloride], for which the AD entry is recorded as “ND (^ <4%)”, the AG result is “ND (^ <4%)”, the AN entry is “ND (^ <4%)” and the HL result is listed as “ND (^ <4%)”. The MS entry is “ND (^ <4%)”, the PS entry is “ND (^ <4%)”, the SH entry is given as “ND (^ <4%)” and the UK result is given as “ND (^ <4%)”. The “MED (minimal effective dose)” value (hydrochloride) came out at 0.3 mpk. Besides, under “hydrochloride, 3 mg/kg”, the AP entry is given as “+ (≥4%)”, the AX entry is recorded as “+++ (≥49%)” and the CE entry was “++ (≥24%)”.
Regarding `CN(C)C1CCc2ccsc2C1.Cl` (single isomer, unassigned) [Compound 16, N,N-dimethyl-4,5,6,7-tetrahydrobenzothiophen-6-amine hydrochloride], the AD result is “ND (^ <4%)”, the AG entry was “ND (^ <4%)”, the AN result is reported as “ND (^ <4%)” and the HL entry is recorded as “ND (^ <4%)”. The MS result is “ND (^ <4%)”, the PS entry is “ND (^ <4%)”, the SH entry was “ND (^ <4%)” and the UK entry is “ND (^ <4%)”. The “MED (minimal effective dose)” value (hydrochloride) is on record as 1.0 mpk. In addition, for the setting “hydrochloride, 3 mg/kg”, the AP entry is “ND (^ <4%)”, the AX result is recorded as “++++ (≥74%)” and the CE entry is “ND (^ <4%)”.
For the molecule `Cl.c1cc2c(s1)CC(N1CCCC1)CC2` (single isomer, unassigned) [Compound 17, 1-(4,5,6,7-tetrahydrobenzothiophen-6-yl)pyrrolidine hydrochloride], the AG result is on record as “ND (^ <4%)”, the AN entry was “ND (^ <4%)”, the CE entry is given as “ND (^ <4%)” and the HL result was “ND (^ <4%)”. For the same molecule, the MS entry is “ND (^ <4%)”, the PS result was “ND (^ <4%)”, the SH result is “ND (^ <4%)” and the UK result is reported as “ND (^ <4%)”. The “MED (minimal effective dose)” value (hydrochloride) came to 1.0 mpk. Moreover, for the setting “hydrochloride, 3 mg/kg”, the AD entry is recorded as “ND (^ <4%)”, the AP entry was “+++ (≥49%)” and the AX entry is recorded as “++++ (≥74%)”.
Consider `Cl.c1cc2c(s1)CC(N1CCCC1)CC2` (single isomer, unassigned) [Compound 18, 1-(4,5,6,7-tetrahydrobenzothiophen-6-yl)pyrrolidine hydrochloride], for which the AG result was “ND (^ <4%)”, the AN entry is listed as “ND (^ <4%)”, the CE entry was “ND (^ <4%)” and the HL entry is recorded as “ND (^ <4%)”. Moreover, the MS result is “ND (^ <4%)”, the PS result is reported as “ND (^ <4%)”, the SH result was “ND (^ <4%)” and the UK result is reported as “ND (^ <4%)”. The “MED (minimal effective dose)” value (hydrochloride) was determined as 0.3 mpk. Where the note is “hydrochloride, 3 mg/kg”, the AD result was “++++ (≥74%)”, the AP result is given as “+ (≥4%)” and the AX result is on record as “ND (^ <4%)”.
As for `CNC1Cc2ccsc2C1.Cl` (single isomer, unassigned) [Compound 19, N-methyl-5,6-dihydro-4H-cyclopenta[b]thiophen-5-amine hydrochloride], the AG entry is listed as “ND (^ <4%)”, the AN result is given as “ND (^ <4%)”, the AP entry is “+ (≥4%)” and the HL entry was “ND (^ <4%)”. The MS result is reported as “ND (^ <4%)”, the PS result is given as “ND (^ <4%)” and the SH entry is listed as “ND (^ <4%)”. Also, the “MED (minimal effective dose)” value (hydrochloride) is 3.0 mpk. Where the note is “hydrochloride, 3 mg/kg”, the AD entry is “++ (≥24%)”, the AX result is listed as “++ (≥24%)”, the CE entry is “ND (^ <4%)” and the UK entry is reported as “+ (≥4%)”.

For the origin of these results see US20260274814A1, “THIENYL COMPOUNDS FOR THE TREATMENT OF A CENTRAL NERVOUS SYSTEM DISEASE OR DISORDER” (Coreterra Therapeutics, Inc., priority 2023, published 2026).
